# Biological target: PB2 (Influenza A virus, UniProt P03428)
# Test: biochemical
# Assay type: binding
# Chain of PB2 (P03428 whole entry, looked up): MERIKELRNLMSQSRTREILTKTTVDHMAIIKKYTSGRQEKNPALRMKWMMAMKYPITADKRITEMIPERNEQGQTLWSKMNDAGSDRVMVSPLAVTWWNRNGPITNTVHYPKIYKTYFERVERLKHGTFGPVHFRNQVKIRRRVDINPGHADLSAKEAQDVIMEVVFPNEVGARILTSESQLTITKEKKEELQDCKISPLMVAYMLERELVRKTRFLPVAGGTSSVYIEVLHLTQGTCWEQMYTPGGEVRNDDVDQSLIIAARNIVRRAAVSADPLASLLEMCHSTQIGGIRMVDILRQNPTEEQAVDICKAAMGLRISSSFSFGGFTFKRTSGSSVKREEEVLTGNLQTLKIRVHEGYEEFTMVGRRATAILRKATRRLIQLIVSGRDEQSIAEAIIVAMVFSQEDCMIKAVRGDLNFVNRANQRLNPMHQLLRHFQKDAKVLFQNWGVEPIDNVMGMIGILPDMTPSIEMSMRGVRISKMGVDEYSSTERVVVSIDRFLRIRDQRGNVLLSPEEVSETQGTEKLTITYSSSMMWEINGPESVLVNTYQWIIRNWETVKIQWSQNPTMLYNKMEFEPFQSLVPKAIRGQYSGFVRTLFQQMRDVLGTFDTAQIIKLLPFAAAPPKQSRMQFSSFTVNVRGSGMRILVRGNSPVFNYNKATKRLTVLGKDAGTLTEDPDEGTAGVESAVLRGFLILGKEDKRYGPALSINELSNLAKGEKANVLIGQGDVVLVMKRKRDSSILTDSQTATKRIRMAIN
row,SMILES,EC50
1,Cc1cccc(CNC(=O)OCc2ccnc(C(=O)N[C@H]3CCC[C@@H](Nc4nc(-c5c[nH]c6ncc(F)cc56)ncc4F)C3)c2)c1 [Compound A127],> 100 µM
2,O=C(O)CCN1CCC[C@H](Nc2nc(-c3c[nH]c4ncc(F)cc34)ncc2F)C1 [Compound C13],5 to 25 µM
3,O=C(N[C@@H]1CCC[C@H](Nc2nc(-c3c[nH]c4ncc(F)cc34)ncc2F)C1)c1cc(-c2ccc(F)cc2)ccn1 [Compound A60],5 to 25 µM
4,CN1CCC(CNC(=O)OCc2ccnc(C(=O)N[C@H]3CCC[C@@H](Nc4nc(-c5c[nH]c6ncc(F)cc56)ncc4F)C3)c2)CC1 [Compound A117],5 to 25 µM
5,CN(CCCCCOCCOCc1ccccn1)C(=O)N[C@@H]1CCC[C@H](Nc2nc(-c3c[nH]c4ncc(F)cc34)ncc2F)C1 [Compound A222],50 to 100 µM
6,CCOCCOCCCCCN(C)C(=O)N1CCC(C(=O)Nc2nc(-c3c[nH]c4ncc(F)cc34)ncc2F)C1 (stereo not drawn) [Compound C9],> 100 µM
7,CCC(CC)OCCNC(=O)OCc1ccnc(C(=O)N[C@H]2CCC[C@@H](Nc3nc(-c4c[nH]c5ncc(F)cc45)ncc3F)C2)c1 [Compound A128],> 100 µM
8,CCOCCOCCOCCNC(=O)N(Cc1ccccc1)[C@@H]1CCC[C@H](Nc2nc(-c3c[nH]c4ncc(F)cc34)ncc2F)C1 [Compound B1],> 100 µM
9,CCNC(=O)C(NC(=O)OCc1ccnc(C(=O)N[C@H]2CCC[C@@H](Nc3nc(-c4c[nH]c5ncc(F)cc45)ncc3F)C2)c1)C(C)(C)C (stereo partly drawn) [Compound A148],50 to 100 µM
10,CCOc1ccc(C(C)NC(=O)OCc2ccnc(C(=O)N[C@H]3CCC[C@@H](Nc4nc(-c5c[nH]c6ncc(F)cc56)ncc4F)C3)c2)cc1 (stereo partly drawn) [Compound A145],> 100 µM
11,O=C(NCCc1ccc(F)cc1)OCc1ccnc(C(=O)N[C@H]2CCC[C@@H](Nc3nc(-c4c[nH]c5ncc(F)cc45)ncc3F)C2)c1 [Compound A101],> 100 µM
12,CCC(CC)OCCOCCCc1ccnc(C(=O)N[C@@H]2CCC[C@H](Nc3nc(-c4c[nH]c5ncc(F)cc45)ncc3F)C2)c1 [Compound A40],> 100 µM
13,CCOCCOCCCCCNC(=O)N(C)[C@H]1CCC[C@@H](Nc2nc(-c3c[nH]c4ncc(F)cc34)ncc2F)C1 [Compound A219],25 to 50 µM
14,C[C@H](NC(=O)OCc1ccnc(C(=O)N[C@@H]2CCC[C@H](Nc3nc(-c4c[nH]c5ncc(F)cc45)ncc3F)C2)c1)C(=O)O [Compound A134],< 5 µM
15,O=C(O)CNCCNC(=O)OCc1ccnc(C(=O)N[C@@H]2CCC[C@H](Nc3nc(-c4c[nH]c5ncc(F)cc45)ncc3F)C2)c1 [Compound A110],5 to 25 µM
16,CCOCCOCCOCCNC(=O)N(CCOCc1ccccc1)[C@@H]1CCC[C@H](Nc2nc(-c3c[nH]c4ncc(F)cc34)ncc2F)C1 [Compound B5],> 100 µM
17,CCCCCCCOCCCN(C)C(=O)N[C@H]1CCC[C@@H](Nc2nc(-c3c[nH]c4ncc(F)cc34)ncc2F)C1 [Compound A206],> 100 µM
18,CCOCCOCCCCCN(CC)C(=O)N[C@H]1CCC[C@@H](Nc2nc(-c3c[nH]c4ncc(F)cc34)ncc2F)C1 [Compound A203],> 100 µM
19,O=C(NCC(=O)N1CCOCC1)OCc1ccnc(C(=O)N[C@H]2CCC[C@@H](Nc3nc(-c4c[nH]c5ncc(F)cc45)ncc3F)C2)c1 [Compound A121],5 to 25 µM
20,O=C(N[C@H]1CCC[C@@H](Nc2nc(-c3c[nH]c4ncc(F)cc34)ncc2F)C1)c1cccnc1 [Compound A37],> 100 µM
21,CCCCCOCCOCC(=O)N[C@H]1CCC[C@@H](Nc2nc(-c3c[nH]c4ncc(F)cc34)ncc2F)C1 [Compound A277],> 100 µM
22,O=C(NCC1COCCN1)OCc1ccnc(C(=O)N[C@H]2CCC[C@@H](Nc3nc(-c4c[nH]c5ncc(F)cc45)ncc3F)C2)c1 (stereo partly drawn) [Compound A120],5 to 25 µM
23,O=C(O)CCCN1CCC[C@H](Nc2nc(-c3c[nH]c4ncc(F)cc34)ncc2F)C1 [Compound C7],5 to 25 µM

row,SMILES,EC50
1,O=C(O)CCC(=O)N1CCC[C@H](Nc2nc(-c3c[nH]c4ncc(F)cc34)ncc2F)C1 [Compound C5],< 5 µM
2,Cc1cncc(C(=O)N[C@@H]2CCC[C@H](Nc3nc(-c4c[nH]c5ncc(F)cc45)ncc3F)C2)c1 [Compound A64],< 5 µM
3,O=C(N[C@H]1CCC[C@@H](Nc2nc(-c3c[nH]c4ncc(F)cc34)ncc2F)C1)c1cc2ccccc2cn1 [Compound A46],> 100 µM
4,O=C(NCc1cccc(Oc2ccccc2)c1)OCc1ccnc(C(=O)N[C@H]2CCC[C@@H](Nc3nc(-c4c[nH]c5ncc(F)cc45)ncc3F)C2)c1 [Compound A119],> 100 µM
5,O=C(O)CNC(=O)OCc1ccnc(C(=O)N[C@@H]2CCC[C@H](Nc3nc(-c4c[nH]c5ncc(F)cc45)ncc3F)C2)c1 [Compound A107],< 5 µM
6,O=C(N[C@H]1CCC[C@@H](Nc2nc(-c3c[nH]c4ncc(F)cc34)ncc2F)C1)N1Cc2ccccc2C1 [Compound A3],5 to 25 µM
7,CCOCCOCc1cccc(-c2ccnc(C(=O)N[C@H]3CCC[C@@H](Nc4nc(-c5c[nH]c6ncc(F)cc56)ncc4F)C3)c2)c1 [Compound A90],50 to 100 µM
8,CCOCCCc1cccc(CCN(C)C(=O)N[C@H]2CCC[C@@H](Nc3nc(-c4c[nH]c5ncc(F)cc45)ncc3F)C2)c1 [Compound A220],50 to 100 µM
9,O=C(N[C@H]1CCC[C@@H](Nc2nc(-c3c[nH]c4ncc(F)cc34)ncc2F)C1)N1CCc2ccccc21 [Compound A14],50 to 100 µM
10,O=C(NCCc1ccccc1)OCc1ccnc(C(=O)N[C@@H]2CCC[C@H](Nc3nc(-c4c[nH]c5ncc(F)cc45)ncc3F)C2)c1 [Compound A94],> 100 µM
11,CN(CCCCCOCCOCc1ccccc1)C(=O)N[C@H]1CCC[C@@H](Nc2nc(-c3c[nH]c4ncc(F)cc34)ncc2F)C1 [Compound A221],> 100 µM
12,O=C(N[C@H]1CCC[C@@H](Nc2nc(-c3c[nH]c4ncc(F)cc34)ncc2F)C1)c1cncc2ccccc12 [Compound A65],25 to 50 µM
13,CCOCCOCCCCCN(Cc1ccccn1)C(=O)N[C@@H]1CCC[C@H](Nc2nc(-c3c[nH]c4ncc(F)cc34)ncc2F)C1 [Compound A207],50 to 100 µM
14,CCOCCOCCCCCN(C(=O)N[C@H]1CCC[C@@H](Nc2nc(-c3c[nH]c4ncc(F)cc34)ncc2F)C1)C(C)C [Compound A214],> 100 µM
15,CCOCCOCCCCCN(C)C(=O)N1CCC(CNc2nc(-c3c[nH]c4ncc(F)cc34)ncc2F)C1 (stereo not drawn) [Compound C8],> 100 µM
16,CCOC1CCCCC1OCCCCCN(C)C(=O)N[C@H]1CCC[C@@H](Nc2nc(-c3c[nH]c4ncc(F)cc34)ncc2F)C1 (stereo partly drawn) [Compound A245],> 100 µM
17,O=C(O)CN1CCC[C@H](Nc2nc(-c3c[nH]c4ncc(F)cc34)ncc2F)C1 [Compound C12],5 to 25 µM
18,CCOCCOCCCCCN(CC(=O)O)C(=O)N[C@@H]1CCC[C@H](Nc2nc(-c3c[nH]c4ncc(F)cc34)ncc2F)C1 [Compound A202],5 to 25 µM
19,CC(C)NCCNC(=O)OCc1ccnc(C(=O)N[C@H]2CCC[C@@H](Nc3nc(-c4c[nH]c5ncc(F)cc45)ncc3F)C2)c1 [Compound A116],5 to 25 µM
20,CCOCCOCCCCCN(C)C(=O)NC1CCC(Nc2nc(-c3c[nH]c4ncc(F)cc34)ncc2F)C1 (stereo not drawn) [Compound A217],> 100 µM
21,CCOCCOc1cccc(CC(=O)N[C@@H]2CCC[C@H](Nc3nc(-c4c[nH]c5ncc(F)cc45)ncc3F)C2)c1 [Compound A273],50 to 100 µM
22,O=C(N[C@H]1CCC[C@@H](Nc2nc(-c3c[nH]c4ncc(F)cc34)ncc2F)C1)N1CCCC(CCCOCCOCc2ccccc2)C1 (stereo partly drawn) [Compound A9],> 100 µM
